Test results published in ChEMBL document CHEMBL4004849, “Tetrazolylmethyl quinolines: Design, docking studies, synthesis, anticancer and antifungal analyses” (2017).
Converted amounts (≈) assume the structure as drawn. The source made the active and inactive calls. The calls are words filed in the database; no cut-off is given here.

Assays:
Format in all cases: functional
T47D = assay: Growth inhibition of human T47D cells at 10^-5 M incubated for 48 hrs by sulforhodamine B assay relative to control
SR = assay: Growth inhibition of human SR cells at 10^-5 M incubated for 48 hrs by sulforhodamine B assay relative to control
LOX IMVI = assay: Growth inhibition of human LOXIMVI cells at 10^-5 M incubated for 48 hrs by sulforhodamine B assay relative to control
UO-31 = assay: Growth inhibition of human UO31 cells at 10^-5 M incubated for 48 hrs by sulforhodamine B assay relative to control
MDA-MB-468 = assay: Growth inhibition of human MDA-MB-468 cells at 10^-5 M incubated for 48 hrs by sulforhodamine B assay relative to control
COLO 205 = assay: Growth inhibition of human COLO205 cells at 10^-5 M incubated for 48 hrs by sulforhodamine B assay relative to control
TK-10 = assay: Growth inhibition of human TK10 cells at 10^-5 M incubated for 48 hrs by sulforhodamine B assay relative to control
SF-539 = assay: Growth inhibition of human SF539 cells at 10^-5 M incubated for 48 hrs by sulforhodamine B assay relative to control
NCI-H460 = assay: Growth inhibition of human NCI-H460 cells at 10^-5 M incubated for 48 hrs by sulforhodamine B assay relative to control
Candida albicans [1] = assay: Antifungal activity against Candida albicans after 24 hrs by serial dilution method
SNB-75 = assay: Growth inhibition of human SNB75 cells at 10^-5 M incubated for 48 hrs by sulforhodamine B assay relative to control
HCT-15 = assay: Growth inhibition of human HCT15 cells at 10^-5 M incubated for 48 hrs by sulforhodamine B assay relative to control
ACHN = assay: Growth inhibition of human ACHN cells at 10^-5 M incubated for 48 hrs by sulforhodamine B assay relative to control
KM12 = assay: Growth inhibition of human KM12 cells at 10^-5 M incubated for 48 hrs by sulforhodamine B assay relative to control
SN12C = assay: Growth inhibition of human SN12C cells at 10^-5 M incubated for 48 hrs by sulforhodamine B assay relative to control
MDA-MB-231 = assay: Growth inhibition of human MDA-MB-231/ATCC cells at 10^-5 M incubated for 48 hrs by sulforhodamine B assay relative to control
M14 = assay: Growth inhibition of human M14 cells at 10^-5 M incubated for 48 hrs by sulforhodamine B assay relative to control
Malme-3M = assay: Growth inhibition of human MALME-3M cells at 10^-5 M incubated for 48 hrs by sulforhodamine B assay relative to control
OVCAR-5 = assay: Growth inhibition of human OVCAR5 cells at 10^-5 M incubated for 48 hrs by sulforhodamine B assay relative to control
OVCAR-4 = assay: Growth inhibition of human OVCAR4 cells at 10^-5 M incubated for 48 hrs by sulforhodamine B assay relative to control
MDA-MB-435 = assay: Growth inhibition of human MDA-MB-435 cells at 10^-5 M incubated for 48 hrs by sulforhodamine B assay relative to control
Hs-578T = assay: Growth inhibition of human Hs 578T cells at 10^-5 M incubated for 48 hrs by sulforhodamine B assay relative to control
OVCAR-3 = assay: Growth inhibition of human OVCAR3 cells at 10^-5 M incubated for 48 hrs by sulforhodamine B assay relative to control
NCI-H23 = assay: Growth inhibition of human NCI-H23 cells at 10^-5 M incubated for 48 hrs by sulforhodamine B assay relative to control
Aspergillus fumigatus [2] = assay: Antifungal activity against Aspergillus fumigatus after 24 hrs by serial dilution method
786-0 = assay: Growth inhibition of human 786-0 cells at 10^-5 M incubated for 48 hrs by sulforhodamine B assay relative to control
SK-OV-3 = assay: Growth inhibition of human SKOV3 cells at 10^-5 M incubated for 48 hrs by sulforhodamine B assay relative to control
SK-MEL-2 = assay: Growth inhibition of human SK-MEL-2 cells at 10^-5 M incubated for 48 hrs by sulforhodamine B assay relative to control
OVCAR-8 = assay: Growth inhibition of human OVCAR8 cells at 10^-5 M incubated for 48 hrs by sulforhodamine B assay relative to control
K562 = assay: Growth inhibition of human K562 cells at 10^-5 M incubated for 48 hrs by sulforhodamine B assay relative to control
SK-MEL-5 = assay: Growth inhibition of human SK-MEL-5 cells at 10^-5 M incubated for 48 hrs by sulforhodamine B assay relative to control
Aspergillus fumigatus [3] = assay: Antifungal activity against Aspergillus fumigatus at 100 ug/ml by disc diffusion method; conditions: read-out: IZ
SNB-19 = assay: Growth inhibition of human SNB19 cells at 10^-5 M incubated for 48 hrs by sulforhodamine B assay relative to control
UACC-257 = assay: Growth inhibition of human UACC257 cells at 10^-5 M incubated for 48 hrs by sulforhodamine B assay relative to control
HCC 2998 = assay: Growth inhibition of human HCC2998 cells at 10^-5 M incubated for 48 hrs by sulforhodamine B assay relative to control
SK-MEL-28 = assay: Growth inhibition of human SK-MEL-28 cells at 10^-5 M incubated for 48 hrs by sulforhodamine B assay relative to control
NCI/ADR-RES = assay: Growth inhibition of human NCI-ADR-RES cells at 10^-5 M incubated for 48 hrs by sulforhodamine B assay relative to control
UACC-62 = assay: Growth inhibition of human UACC62 cells at 10^-5 M incubated for 48 hrs by sulforhodamine B assay relative to control
EKVX = assay: Growth inhibition of human EKVX cells at 10^-5 M incubated for 48 hrs by sulforhodamine B assay relative to control
MCF7 = assay: Growth inhibition of human MCF7 cells at 10^-5 M incubated for 48 hrs by sulforhodamine B assay relative to control
BT-549 = assay: Growth inhibition of human BT549 cells at 10^-5 M incubated for 48 hrs by sulforhodamine B assay relative to control
HL-60(TB) = assay: Growth inhibition of human HL-60(TB) cells at 10^-5 M incubated for 48 hrs by sulforhodamine B assay relative to control
SW-620 = assay: Growth inhibition of human SW620 cells at 10^-5 M incubated for 48 hrs by sulforhodamine B assay relative to control
SF-295 = assay: Growth inhibition of human SF295 cells at 10^-5 M incubated for 48 hrs by sulforhodamine B assay relative to control
Candida albicans [4] = assay: Antifungal activity against Candida albicans at 100 ug/ml by disc diffusion method; conditions: read-out: IZ

COc1ccc2nc(Cl)c(Cn3nnc(Cc4ccccc4)n3)cc2c1
inhibition of growth at 10 µM (T47D; read-out: GI): 97.6% | inhibition of growth at 10 µM (SR; read-out: GI): 77.1% | inhibition of growth at 10 µM (LOX IMVI; read-out: GI): 57.1% | inhibition of growth at 10 µM (UO-31; UO-31, 48 h, read-out: GI): 85.3% | inhibition of growth at 10 µM (MDA-MB-468; MDA-MB-468, 48 h, read-out: GI): 70.1% | inhibition of growth at 10 µM (COLO 205; COLO 205, 48 h, read-out: GI): 75.1% | inhibition of growth at 10 µM (TK-10; TK-10, 48 h, read-out: GI): 65.1% | inhibition of growth at 10 µM (SF-539; SF-539, 48 h, read-out: GI): 32.5% | inhibition of growth at 10 µM (NCI-H460; NCI-H460, 48 h, read-out: GI): 60% | MIC (Candida albicans [1]): 10 µg/mL (≈ 27.3 µM) | inhibition of growth at 10 µM (SNB-75; SNB-75, 48 h, read-out: GI): 42.9% | inhibition of growth at 10 µM (HCT-15; HCT-15, 48 h, read-out: GI): 63.5% | inhibition of growth at 10 µM (ACHN; read-out: GI): 58.5% | inhibition of growth at 10 µM (KM12; KM12, 48 h, read-out: GI): 63.5% | inhibition of growth at 10 µM (SN12C; read-out: GI): 42.7% | inhibition of growth at 10 µM (MDA-MB-231; MDA-MB-231, 48 h, read-out: GI): 49.3% | inhibition of growth at 10 µM (M14; M14, 48 h, read-out: GI): 69.7% | inhibition of growth at 10 µM (Malme-3M; read-out: GI): 65.6% | inhibition of growth at 10 µM (OVCAR-5; OVCAR-5, 48 h, read-out: GI): 17.2% | inhibition of growth at 10 µM (OVCAR-4; OVCAR-4, 48 h, read-out: GI): 80.3% | inhibition of growth at 10 µM (MDA-MB-435; MDA-MB-435, 48 h, read-out: GI): 70.7% | inhibition of growth at 10 µM (Hs-578T; read-out: GI): 31.1% | inhibition of growth at 10 µM (OVCAR-3; OVCAR-3, 48 h, read-out: GI): 50.1% | inhibition of growth at 10 µM (NCI-H23; NCI-H23, 48 h, read-out: GI): 67.5% | MIC (Aspergillus fumigatus [2]): 25 µg/mL (≈ 68.3 µM) | inhibition of growth at 10 µM (786-0; 786-0, 48 h, read-out: GI): 52.5% | inhibition of growth at 10 µM (SK-OV-3; SK-OV-3, 48 h, read-out: GI): 50.6% | inhibition of growth at 10 µM (SK-MEL-2; SK-MEL-2, 48 h, read-out: GI): 50.4% | inhibition of growth at 10 µM (OVCAR-8; OVCAR-8, 48 h, read-out: GI): 59.5% | inhibition of growth at 10 µM (K562; K562, 48 h, read-out: GI): 67.1% | inhibition of growth at 10 µM (SK-MEL-5; SK-MEL-5, 48 h, read-out: GI): 147% | zone of inhibition at 100 µg/mL (Aspergillus fumigatus [3]): 20 mm | inhibition of growth at 10 µM (SNB-19; SNB-19, 48 h, read-out: GI): 42% | inhibition of growth at 10 µM (UACC-257; UACC-257, 48 h, read-out: GI): 73.5% | inhibition of growth at 10 µM (HCC 2998; HCC 2998, 48 h, read-out: GI): 41% | inhibition of growth at 10 µM (SK-MEL-28; SK-MEL-28, 48 h, read-out: GI): 52.5% | inhibition of growth at 10 µM (NCI/ADR-RES; read-out: GI): 79.9% | inhibition of growth at 10 µM (UACC-62; UACC-62, 48 h, read-out: GI): 64.9% | inhibition of growth at 10 µM (EKVX; read-out: GI): 75.5% | inhibition of growth at 10 µM (MCF7; MCF7, 48 h, read-out: GI): 72.1% | inhibition of growth at 10 µM (BT-549; BT-549, 48 h, read-out: GI): 79.7% | inhibition of growth at 10 µM (HL-60(TB); HL-60, 48 h, read-out: GI): 43.4% | inhibition of growth at 10 µM (SW-620; SW-620, 48 h, read-out: GI): 33.6% | inhibition of growth at 10 µM (SF-295; SF-295, 48 h, read-out: GI): 62.6% | zone of inhibition at 100 µg/mL (Candida albicans [4]): 16 mm

Clc1nc2ccc(Br)cc2cc1Cn1nnnc1CSc1ccccc1
growth inhibition (GI) (T47D): Active | growth inhibition (GI) (SR): Active | growth inhibition (GI) (LOX IMVI): Active | growth inhibition (GI) (UO-31): Active | growth inhibition (GI) (MDA-MB-468): Active | growth inhibition (GI) (COLO 205): Active | growth inhibition (GI) (TK-10): Active | growth inhibition (GI) (SF-539): Active | growth inhibition (GI) (NCI-H460): Active | MIC (Candida albicans [1]): 25 µg/mL (≈ 56 µM) | growth inhibition (GI) (SNB-75): Active | growth inhibition (GI) (HCT-15): Active | growth inhibition (GI) (ACHN): Active | growth inhibition (GI) (KM12): Active | growth inhibition (GI) (SN12C): Active | growth inhibition (GI) (MDA-MB-231): Active | growth inhibition (GI) (M14): Active | growth inhibition (GI) (Malme-3M): Active | growth inhibition (GI) (OVCAR-5): Active | growth inhibition (GI) (OVCAR-4): Active | growth inhibition (GI) (MDA-MB-435): Active | growth inhibition (GI) (Hs-578T): Active | growth inhibition (GI) (OVCAR-3): Active | growth inhibition (GI) (NCI-H23): Active | MIC (Aspergillus fumigatus [2]): 5 µg/mL (≈ 11.2 µM) | growth inhibition (GI) (786-0): Active | growth inhibition (GI) (SK-OV-3): Active | growth inhibition (GI) (SK-MEL-2): Active | growth inhibition (GI) (OVCAR-8): Active | growth inhibition (GI) (K562): Active | growth inhibition (GI) (SK-MEL-5): Active | zone of inhibition at 100 µg/mL (Aspergillus fumigatus [3]): 20 mm | growth inhibition (GI) (SNB-19): Active | growth inhibition (GI) (UACC-257): Active | growth inhibition (GI) (HCC 2998): Active | growth inhibition (GI) (SK-MEL-28): Active | growth inhibition (GI) (NCI/ADR-RES): Active | growth inhibition (GI) (UACC-62): Active | growth inhibition (GI) (EKVX): Active | growth inhibition (GI) (MCF7): Active | growth inhibition (GI) (BT-549): Active | growth inhibition (GI) (HL-60(TB)): Active | growth inhibition (GI) (SW-620): Active | growth inhibition (GI) (SF-295): Active | zone of inhibition at 100 µg/mL (Candida albicans [4]): 12 mm
